In data set [1] the target is T1, Prx4 (Homo sapiens, UniProt Q13162).
T1 construct: gene PRDX4; His-tagged wild type human Prx4
T1 sequence (Q13162 38-271): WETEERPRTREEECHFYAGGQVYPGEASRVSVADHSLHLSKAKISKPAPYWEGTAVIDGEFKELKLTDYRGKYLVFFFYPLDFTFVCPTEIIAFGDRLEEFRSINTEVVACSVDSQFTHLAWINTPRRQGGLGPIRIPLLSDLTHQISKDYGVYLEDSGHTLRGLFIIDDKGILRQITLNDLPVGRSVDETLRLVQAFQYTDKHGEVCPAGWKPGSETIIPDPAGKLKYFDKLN
The data set is described as follows: redox blotting, estimated rate constant at […] °C. The data set is classed as biochemical.

Data set [2] addresses T2, GPx4 (Rattus norvegicus, UniProt P36970).
T2 construct: GPx4 isolated from rat testis mitochondria
T2 sequence (P36970 28-197): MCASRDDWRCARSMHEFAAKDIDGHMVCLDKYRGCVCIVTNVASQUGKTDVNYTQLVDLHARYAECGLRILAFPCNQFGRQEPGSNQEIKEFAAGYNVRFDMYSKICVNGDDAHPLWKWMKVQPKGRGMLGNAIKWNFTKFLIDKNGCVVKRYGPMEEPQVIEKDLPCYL
The data set is described as follows: coupled NADPH oxidation assay, apparent second-order rate constant. The data set is classed as biochemical.

Data set [3] concerns the target T3, PKG1α (Homo sapiens, UniProt Q13976).
T3 construct: gene PRKG1; purified recombinant PKG1α, His-tag cleaved
T3 sequence (Q13976 2-671): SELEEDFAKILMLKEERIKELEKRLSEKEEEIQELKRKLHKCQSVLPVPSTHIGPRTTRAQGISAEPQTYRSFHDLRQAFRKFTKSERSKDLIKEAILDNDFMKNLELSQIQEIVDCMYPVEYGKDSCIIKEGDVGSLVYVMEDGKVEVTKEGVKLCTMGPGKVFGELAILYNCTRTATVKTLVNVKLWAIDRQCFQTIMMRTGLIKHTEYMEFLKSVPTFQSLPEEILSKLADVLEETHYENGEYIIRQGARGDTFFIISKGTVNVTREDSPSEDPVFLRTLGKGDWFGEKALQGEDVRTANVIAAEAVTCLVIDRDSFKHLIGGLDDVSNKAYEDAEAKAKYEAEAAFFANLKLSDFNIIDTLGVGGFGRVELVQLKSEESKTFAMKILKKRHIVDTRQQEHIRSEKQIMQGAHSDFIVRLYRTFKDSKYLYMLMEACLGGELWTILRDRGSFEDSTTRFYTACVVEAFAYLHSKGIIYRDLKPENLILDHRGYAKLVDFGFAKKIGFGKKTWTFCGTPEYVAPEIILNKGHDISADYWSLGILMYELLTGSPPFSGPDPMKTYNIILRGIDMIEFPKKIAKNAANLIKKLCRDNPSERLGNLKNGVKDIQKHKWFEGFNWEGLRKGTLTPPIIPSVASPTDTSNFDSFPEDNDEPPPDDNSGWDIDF
The data set is described as follows: oxidative dimerization of purified PKG1α, non-reducing SDS-PAGE. Format: biochemical.

Data set [4] concerns the molecule itself. The data set is described as follows: non-reducing SDS-PAGE (disulfide-linked dimer, redox blotting); purified pre-reduced Prx (20 uM) incubated with cis-WOOH, trans-WOOH (1-20 uM) or H2O2 (2.5-20 uM) for 10 s at 5 °C in 50 mM sodium phosphate pH 7.4 with 100 uM DTPA; NEM 50 mM; non-reducing 4-12% SDS-PAGE, silver stain; monomer and dimer bands.
Data set [5] concerns the molecule itself. Briefly: non-reducing SDS-PAGE (disulfide-linked dimer); purified PKG1α (3.3 uM) with 200 uM cis-WOOH or H2O2, 5 min, 25 °C, 25 mM phosphate pH 7.0, 200 uM TCEP; stopped with 125 mM maleimide; non-reducing 4-12% SDS-PAGE, silver stain.

As for `O=C(O)[C@@H]1C[C@@]2(OO)c3ccccc3N[C@H]2N1` [cis-WOOH], the “redox blotting, estimated rate constant at 5 °C” value in data set [1] is ~ 10^3 M^−1 s^−1. The “coupled NADPH oxidation assay, apparent second-order rate constant” value in data set [2] came to 1e+06 M⁻¹ s⁻¹. The “oxidative dimerization of purified PKG1α, non-reducing SDS-PAGE” value in data set [3] is on record as “cis-WOOH caused greater PKG1α dimerization than the same concentrations of H2O2”.
Regarding `O=C(O)[C@@H]1C[C@]2(OO)c3ccccc3N[C@@H]2N1` [trans-WOOH], in data set [1], the “redox blotting, estimated rate constant at 5 °C” value is reported as ~ 10^3 M^−1 s^−1. For the same molecule, in data set [2], the “coupled NADPH oxidation assay, apparent second-order rate constant” value stood at 1.6e+06 M⁻¹ s⁻¹.

B1: His-tagged wild type human Prx2 (peroxiredoxin 2) (enzyme, UniProt P32119 1-198, looked up)
chain: MASGNARIGKPAPDFKATAVVDGAFKEVKLSDYKGKYVVLFFYPLDFTFVCPTEIIAFSNRAEDFRKLGCEVLGVSVDSQFTHLAWINTPRKEGGLGPLNIPLLADVTRRLSEDYGVLKTDEGIAYRGLFIIDGKGVLRQITVNDLPVGRSVDEALRLVQAFQYTDEHGEVCPAGWKPGSDTIKPNVDDSKEYFSKHN
notes: human peroxiredoxin 2 (Prx2), wild type; also called His-tagged Prx2; pre-reduced His-tagged Prx2; source: E. coli BL21 (DE3), pET-28a, purified (Ni-NTA)
As to B1, the binding result in data set [4] was “binds”.

B2: untagged human Prx2 (His-tag cleaved with Factor Xa) (enzyme, UniProt P32119 1-198, looked up)
chain: MASGNARIGKPAPDFKATAVVDGAFKEVKLSDYKGKYVVLFFYPLDFTFVCPTEIIAFSNRAEDFRKLGCEVLGVSVDSQFTHLAWINTPRKEGGLGPLNIPLLADVTRRLSEDYGVLKTDEGIAYRGLFIIDGKGVLRQITVNDLPVGRSVDEALRLVQAFQYTDEHGEVCPAGWKPGSDTIKPNVDDSKEYFSKHN
notes: human peroxiredoxin 2 (Prx2), wild type; also called untagged Prx2; source: E. coli BL21 (DE3), pET-28a, purified (Ni-NTA), tag cleaved with Factor Xa
With B2, the binding result in data set [4] is on record as “binds”.

B3: purified recombinant human protein kinase G 1α (PKG1α) (enzyme, UniProt Q13976 1-671, looked up)
chain: MSELEEDFAKILMLKEERIKELEKRLSEKEEEIQELKRKLHKCQSVLPVPSTHIGPRTTRAQGISAEPQTYRSFHDLRQAFRKFTKSERSKDLIKEAILDNDFMKNLELSQIQEIVDCMYPVEYGKDSCIIKEGDVGSLVYVMEDGKVEVTKEGVKLCTMGPGKVFGELAILYNCTRTATVKTLVNVKLWAIDRQCFQTIMMRTGLIKHTEYMEFLKSVPTFQSLPEEILSKLADVLEETHYENGEYIIRQGARGDTFFIISKGTVNVTREDSPSEDPVFLRTLGKGDWFGEKALQGEDVRTANVIAAEAVTCLVIDRDSFKHLIGGLDDVSNKAYEDAEAKAKYEAEAAFFANLKLSDFNIIDTLGVGGFGRVELVQLKSEESKTFAMKILKKRHIVDTRQQEHIRSEKQIMQGAHSDFIVRLYRTFKDSKYLYMLMEACLGGELWTILRDRGSFEDSTTRFYTACVVEAFAYLHSKGIIYRDLKPENLILDHRGYAKLVDFGFAKKIGFGKKTWTFCGTPEYVAPEIILNKGHDISADYWSLGILMYELLTGSPPFSGPDPMKTYNIILRGIDMIEFPKKIAKNAANLIKKLCRDNPSERLGNLKNGVKDIQKHKWFEGFNWEGLRKGTLTPPIIPSVASPTDTSNFDSFPEDNDEPPPDDNSGWDIDF
notes: human cGMP-dependent protein kinase 1, isoform alpha (PKG1α); also called PK1α; source: FreeStyle 293-F cells, transfected, purified (Ni-NTA, HiTrap Q), His-tag cleaved with TEV protease
As to B3, in data set [5], the binding result is reported as “binds”.

These data come from paper PMC8595612, “Hydrogen peroxide signaling via its transformation to a stereospecific alkyl hydroperoxide that escapes reductive inactivation” (Nature Communications, 2021).
